From patent US20070059385A1, “Safe pharmaceutical composition for treating and preventing cancer and method of use” (priority 2005, published 2007)
Like-named read-outs stand apart in the source and are kept apart here.

Experiments:
[1] = tested on: cancer cells; test: Inhibition of tumor cell proliferation; type: cell-based; conditions: Homo sapiens; 1 μg/ml drug, 72 hours; read-out: Inhibition (%) of growth of cancer cells
Method: Human tumor cell lines: Hela leukemia HL-60, malignant melanocarcinoma B 16, oral epidermoid carcinoma (KB), lung carcinoma (A549), breast carcinoma MCF-7, adenocarcinoma of stomach.
Animal tumor cell lines: Walker carcinoma, LLC-WRC-256, malignant melanoma (RMMI 1846), 3T3, and S-1 80 sarcoma (CCRF-180). All lines were routinely cultured in the RPMI1640 medium supplemented 20% fetal calf serum. The experiment was carried out in 96 microplate, each well had 5×10^5 cells and given desired concentration of 1 μg/ml (1×10^−6 g/ml) drug. Then the plate was incubated at 37° C. in an atmosphere of humidified air enriched with 5 percent carbon dioxide for 72 hours. Inhibition percent rate of tumor cell proliferation was obtained according to the bellow formula. [formula]

[2] = tested on: tyrosine kinase (TK); test: Tyrosine kinase (TK) assay in HL-60 leukemia cells; type: cell-based, human
Method: Tyrosine kinase (TK) Assay: TK was measured by a modification of the method of Braun et al. Briefly, H-60 leukemia cells were plated at a density of 5×10^5 cells in […], and divided control and treatments groups for incubation 24 hours at 37° C. with 5% CO2. The cells were collected by scraping, washed twice with phosphate-buffered saline, and resuspended at density of 10^6 cells/ml in 5 mM HEPEs buffer (pH 7.4). The cells were then resuspended in 1 ml of buffer containing 5 mM HEPES (pH 7.6), 1 mM MgCl2 and 1 mM EDTA, then placed on ice bath. The cell membrane was disrupted by ultra sound and centrifuged at 1,000×g for 10 minutes. The supernatant was ultra centrifuged at 30,000×g for 30 minutes at 4° C. The pellet was resuspended in 0.3 ml of buffer containing 25 mM HEOES, centrifuged at 12,000×g for 5 minutes. The resulting supernatant was used for TK assay. Content of protein was determined. 10 μg of protein placed in 20 mM HEPES (pH 7.6), 15 mM MgCl2, 10 mM ZnCl2 and 5% (v/v) nonidet P-40, with or without substrate [glutamic acid (GT), mg/ml]. After 5 minutes incubation at 25° C., the reaction was initiated by the addition of 25 μM [γ^32P] ATP (3 ci/mmol). After 10 minutes, the reaction was stopped by the addition of 20 mM cold ATP. 50 μl of the mixtures were spotted on glass microfiber filter discs and washed three times with cold trichloroacetic acid (TCA), contained 10 mM sodium pyrophosphate. Air dried. Radioactivity was determined by liquid scintillation spectrometry. The net TK activity was determined after correcting for endogenous TK activity.

[3] = dog, in vivo
Description: Twenty normal adult dogs which weight approximately 10 kg±1 kg used in experiments.
Most deaths were caused by cardiac dysfunction.

[4] = tested on: TA97; test: Salmonella mutagenicity assay TA97
Method: The method for detecting mutagenicity of HHT, with the Salmonella system that detects the reversion of the bacteria from His^− to His^+, is widely used.
The bacterial tester strains used for mutagenesis testing are TA97, TA98, TA100 and TA102. Mutagenesis testing method was done as described previously ^[77-88]. In brief, TA97, TA98, TA100 and TA102 were grown in agar gel culture. The petri plats (100×15 mm style) contain 30 ml with 2% glucose. The agar mixture was agitated vigorously and immediately poured into plates of minimal agar. The cultures were incubated at 37° C. in a dark and 5% CO2 in air for 48 hours. After 48 hours the colonies in both test and controls are counted. The presence of a background lawn of bacteria on the histidine-poor soft agar plate was used as an indication that gross toxic effects were absent. Mutagenicity assays were carried out at least in triplicate.
The range of spontaneous mutation rates for the individual strains, which were considered to be acceptable, was TA97 (100-170), TA98 (20-40) and TA100 (80-150).

In the case of `COC(=O)C[C@](O)(CCCC(C)(C)O)C(=O)O[C@@H]1C(OC)=C[C@]23CCCN2CCc2cc4c(cc2[C@H]13)OCO4` [HHT, Homoharringtonine], the inhibition at 1 µg/mL [1] is reported as 73.8 ± 8.1%, the “inhibition of HL-60 TK activity” value ([2]; 10^−7 M) is reported as 78.5% and the “inhibition of HL-60 TK activity” value ([2]; 10^−8 M) is reported as 12.2%. The “% of control activity (TK)” value ([2]; HL-60 leukemia cells, 10^−6 M) was 0.6%, the “% of control activity (TK)” value ([2]; HL-60 leukemia cells, 10^−8 M) was 87.8 ± 12% and the “% of control activity (TK)” value ([2]; Table 8, concentration not given) was 21.5 ± 4.0%. For the same molecule, the “major target organs involved in toxicity” value [3] was “limited to G.I. tract, heart and hematopoietic organs”, the reversibility of toxicities [3] was “completely reversible upon discontinuation of treatment” and the “Abnormality of ECG, ST-T” value ([3]; 0.1 mg/kg/day) was “−”. For the same molecule, the Anorexia ([3]; 0.1 mg/kg/day) was “+”, the Cardiac necrosis ([3]; 0.1 mg/kg/day) was “−” and the Diarrhea ([3]; 0.1 mg/kg/day) was “±”. The Hepatic ecchymosis ([3]; 0.1 mg/kg/day) was “−”, the “Hepatic fibrosis and cirrhosis” value ([3]; 0.1 mg/kg/day) was “−” and the Hepatic necrosis ([3]; 0.1 mg/kg/day) was “−”. For the same molecule, the Marrow depression ([3]; 0.1 mg/kg/day) was “+”, the Renal necrosis ([3]; 0.1 mg/kg/day) was “−” and the Renal toxic nephropathy ([3]; 0.1 mg/kg/day) was “−”. The Seminal depression ([3]; 0.1 mg/kg/day) was “−”, the Spleen necrosis ([3]; 0.1 mg/kg/day) was “−” and the Vomiting ([3]; 0.1 mg/kg/day) was “+”. The “Abnormality of ECG, ST-T” value ([3]; 0.2 mg/kg/day) was “±”, the Anorexia ([3]; 0.2 mg/kg/day) was “++” and the Cardiac necrosis ([3]; 0.2 mg/kg/day) was “−”. The Diarrhea ([3]; 0.2 mg/kg/day) was “+”, the Hepatic ecchymosis ([3]; 0.2 mg/kg/day) was “−” and the “Hepatic fibrosis and cirrhosis” value ([3]; 0.2 mg/kg/day) was “−”. The Hepatic necrosis ([3]; 0.2 mg/kg/day) was “±”, the Marrow depression ([3]; 0.2 mg/kg/day) was “+” and the Renal necrosis ([3]; 0.2 mg/kg/day) was “−”. For the same molecule, the Renal toxic nephropathy ([3]; 0.2 mg/kg/day) was “−”, the Seminal depression ([3]; 0.2 mg/kg/day) was “−” and the Spleen necrosis ([3]; 0.2 mg/kg/day) was “−”. For the same molecule, the Vomiting ([3]; 0.2 mg/kg/day) was “+”, the “Abnormality of ECG, ST-T” value ([3]; 0.3 mg/kg/day) was “+” and the Anorexia ([3]; 0.3 mg/kg/day) was “+++”. The Cardiac necrosis ([3]; 0.3 mg/kg/day) was “±”, the Diarrhea ([3]; 0.3 mg/kg/day) was “+” and the Erythrocyte count ([3]; 0.3 mg/kg/day) was 3.40 ×10^6/mm^3. For the same molecule, the Hepatic ecchymosis ([3]; 0.3 mg/kg/day) was “±”, the “Hepatic fibrosis and cirrhosis” value ([3]; 0.3 mg/kg/day) was “±” and the Hepatic necrosis ([3]; 0.3 mg/kg/day) was “+”. The Marrow depression ([3]; 0.3 mg/kg/day) was “++”, the Renal necrosis ([3]; 0.3 mg/kg/day) was “±” and the Renal toxic nephropathy ([3]; 0.3 mg/kg/day) was “±”. For the same molecule, the Seminal depression ([3]; 0.3 mg/kg/day) was “−”, the Spleen necrosis ([3]; 0.3 mg/kg/day) was “±” and the Vomiting ([3]; 0.3 mg/kg/day) was “++”. The “Number of His^+ revertants/plate” value ([4]; TA97 +S, 0.1 μg/plate) was 145 ± 14 revertants/plate, the “Number of His^+ revertants/plate” value ([4]; TA97 +S, 1 μg/plate) was 150 ± 14 revertants/plate and the “Number of His^+ revertants/plate” value ([4]; TA97 +S, 10 μg/plate) was 165 ± 16 revertants/plate. The “Number of His^+ revertants/plate” value ([4]; TA97 +S, 100 μg/plate) was 160 ± 17 revertants/plate, the “Number of His^+ revertants/plate” value ([4]; TA97 −S, 0.1 μg/plate) was 120 ± 10 revertants/plate and the “Number of His^+ revertants/plate” value ([4]; TA97 −S, 1 μg/plate) was 130 ± 11 revertants/plate. The “Number of His^+ revertants/plate” value ([4]; TA97 −S, 10 μg/plate) was 160 ± 16 revertants/plate and the “Number of His^+ revertants/plate” value ([4]; TA97 −S, 100 μg/plate) was 150 ± 16 revertants/plate.
